# Laboratory results taken from patent US20260034112A1, “MULTI-CYCLIC IRAK1 AND IRAK4 INHIBITING COMPOUNDS AND USES THEREOF” (CHILDREN'S HOSPITAL MEDICAL CENTER, priority 2022, published 2026).
# Test system: MDS/AML cell lines and patient-derived samples
# Assay: Clonogenic assay (colony formation in methylcellulose)
# Assay type: cell-based, human
# Details: for Inhibition of colony formation: MDSL, TF1, AML1714, AML1294, methylcellulose
SMILES,"Sensitivity of IRAK1KO MDS/AML cells (growth, colony formation) (IRAK1KO versus WT THP1 and MDSL cells)",Inhibition of colony formation
"Cc1cc(-c2nc(C(=O)Nc3cc4oc(N5CCOCC5)nc4nc3N3CC[C@@H](O)C3)co2)ccn1 [CA-4948, emavusertib]",more sensitive,"dose-dependent, yet incomplete, inhibition of colony formation"
"CC[C@@H]1[C@H](F)C(=O)N[C@@H]1COc1nccc2cc(C(N)=O)c(OC)cc12 [PF-06650833, Zimlovisertib]",–,inhibition of colony formation by MDSL and TF1 cells but was less effective at suppressing the patient-derived AML samples
